Data reported in ChEMBL document CHEMBL1158924, “Cytotoxic constituents of the bark of Plumeria rubra collected in Indonesia” (1990).
In brackets after ≈: the same amount, converted by molar mass.

What was measured:
Format in all cases: functional
[1] = Cytotoxicity against human lung cancer cells; details: Cancer cell lines, read-out: ED50 (the source's name)
HT-1080 = test: Cytotoxicity against human HT1080 cells; details: read-out: ED50 (the source's name)
[2] = Cytotoxicity against human melanoma cells; details: Melanoma cell, read-out: ED50 (the source's name)
KB = test: Cytotoxicity against human KB cells; details: read-out: ED50 (the source's name)
[3] = Cytotoxicity against human colon cancer cells; details: Cancer cell lines, read-out: ED50 (the source's name)
P388 = test: Cytotoxicity against mouse P388 cells; details: read-out: ED50 (the source's name)
[4] = Cytotoxicity against human breast cancer cells; details: Cancer cell lines, read-out: ED50 (the source's name)

**Q.** Which EC50 [1] does the source give for C/C=C1/C(=O)O[C@]23C=C[C@@H]4C(C(=O)OC)=CO[C@H](O[C@@H]12)[C@@H]43 [PLUMERICIN] here?
**A.** 0.2 µg/mL (≈ 0.689 µM)

**Q.** What about the EC50 (HT-1080) of the same compound?
**A.** 0.2 µg/mL (≈ 0.689 µM)

**Q.** And the EC50 [2]?
**A.** 2.8 µg/mL (≈ 9.65 µM)

**Q.** And the EC50 (KB)?
**A.** 0.3 µg/mL (≈ 1.03 µM)

**Q.** And the EC50 [3]?
**A.** 0.1 µg/mL (≈ 0.345 µM)

**Q.** What about the EC50 (P388) of the same compound?
**A.** 1.2 µg/mL (≈ 4.13 µM)

**Q.** What about the EC50 [4] of the same compound?
**A.** 0.4 µg/mL (≈ 1.38 µM)

**Q.** Which results are given for COC(=O)C1=CO[C@@H](O[C@@H]2O[C@H](CO)[C@@H](O)[C@H](O)[C@H]2O)[C@H]2[C@@H]1C=C[C@@]21C=C([C@H](C)OC(=O)/C=C/c2ccc(O)cc2)C(=O)O1?
**A.** EC50 [1]: > 50 µg/mL; EC50 (HT-1080): > 50 µg/mL; EC50 [2]: > 50 µg/mL; EC50 (KB): > 50 µg/mL; EC50 [3]: > 50 µg/mL; EC50 (P388): > 50 µg/mL; EC50 [4]: > 50 µg/mL

**Q.** Which EC50 [1] does the source give for COC(=O)[C@@H]1CO[C@@H](O)[C@H]2[C@@H]1C=C[C@@]21C=C([C@H](C)O)C(=O)O1 here?
**A.** > 50 µg/mL

**Q.** And the EC50 (HT-1080)?
**A.** > 50 µg/mL

**Q.** What about the EC50 [2] of the same compound?
**A.** > 50 µg/mL

**Q.** And the EC50 (KB)?
**A.** > 50 µg/mL

**Q.** What about the EC50 [3] of the same compound?
**A.** > 50 µg/mL

**Q.** What about the EC50 (P388) of the same compound?
**A.** > 50 µg/mL

**Q.** And the EC50 [4]?
**A.** > 50 µg/mL

**Q.** Which EC50 [1] does the source give for C/C=C/C=C1\C=Cc2c(C(=O)OC)coc(=O)c21 [FULVOPLUMIERIN] here?
**A.** 3 µg/mL (≈ 12.3 µM)

**Q.** What about the EC50 (HT-1080) of the same compound?
**A.** 3.4 µg/mL (≈ 13.9 µM)

**Q.** And the EC50 [2]?
**A.** 0.7 µg/mL (≈ 2.87 µM)

**Q.** And the EC50 (KB)?
**A.** 4.6 µg/mL (≈ 18.8 µM)

**Q.** What about the EC50 [3] of the same compound?
**A.** 1.3 µg/mL (≈ 5.32 µM)

**Q.** What about the EC50 (P388) of the same compound?
**A.** 2.5 µg/mL (≈ 10.2 µM)

**Q.** And the EC50 [4]?
**A.** 3.5 µg/mL (≈ 14.3 µM)

**Q.** For COC1=CC(=O)C(OC)=CC1=O, which EC50 [1] is on record?
**A.** 1.3 µg/mL (≈ 7.73 µM)

**Q.** What about the EC50 (HT-1080) of the same compound?
**A.** 3.4 µg/mL (≈ 20.2 µM)

**Q.** What about the EC50 [2] of the same compound?
**A.** 2.7 µg/mL (≈ 16.1 µM)

**Q.** And the EC50 (KB)?
**A.** 3.8 µg/mL (≈ 22.6 µM)

**Q.** What about the EC50 [3] of the same compound?
**A.** 1.4 µg/mL (≈ 8.33 µM)

**Q.** And the EC50 (P388)?
**A.** 2.5 µg/mL (≈ 14.9 µM)

**Q.** What about the EC50 [4] of the same compound?
**A.** 5.2 µg/mL (≈ 30.9 µM)

**Q.** Which results are given for C/C=C1/C(=O)O[C@@]23C=C[C@H]4[C@@H](C(=O)OC)[C@H](O)O[C@@H](O[C@H]12)[C@H]43 [ALLAMANDIN]?
**A.** EC50 [1]: 0.7 µg/mL (≈ 2.27 µM); EC50 (HT-1080): 0.8 µg/mL (≈ 2.59 µM); EC50 [2]: 0.3 µg/mL (≈ 0.973 µM); EC50 (KB): 0.4 µg/mL (≈ 1.3 µM); EC50 [3]: 0.3 µg/mL (≈ 0.973 µM); EC50 (P388): 0.2 µg/mL (≈ 0.649 µM); EC50 [4]: 0.4 µg/mL (≈ 1.3 µM)

**Q.** What does the source list for COc1cc([C@H]2OC[C@H]3[C@@H]2CO[C@@H]3c2cc(OC)c(O[C@@H]3O[C@H](CO)[C@@H](O)[C@H](O)[C@H]3O)c(OC)c2)cc(OC)c1O[C@@H]1O[C@H](CO)[C@@H](O)[C@H](O)[C@H]1O [LIRIODENDRIN]?
**A.** EC50 [1]: 6 µg/mL (≈ 8.08 µM); EC50 (HT-1080): 8.9 µg/mL (≈ 12 µM); EC50 [2]: 19 µg/mL (≈ 25.6 µM); EC50 (KB): 6 µg/mL (≈ 8.08 µM); EC50 [3]: 16 µg/mL (≈ 21.5 µM); EC50 (P388): 2.4 µg/mL (≈ 3.23 µM); EC50 [4]: 30 µg/mL (≈ 40.4 µM)

**Q.** Which results are given for COC(=O)[C@@H]1CO[C@H](O)[C@H]2[C@@H]1C=C[C@@]21C=C([C@H](C)O)C(=O)O1?
**A.** EC50 [1]: > 50 µg/mL; EC50 (HT-1080): > 50 µg/mL; EC50 [2]: > 50 µg/mL; EC50 (KB): > 50 µg/mL; EC50 [3]: > 50 µg/mL; EC50 (P388): > 50 µg/mL; EC50 [4]: > 50 µg/mL

**Q.** With COC(=O)C1=CO[C@@H](O[C@@H]2O[C@H](CO)[C@@H](O)[C@H](O)[C@H]2O)[C@H]2[C@@H]1C=C[C@@]21C=C([C@H](C)O)C(=O)O1 [PLUMIERIDE] as the compound, how does the EC50 [1] read?
**A.** > 50 µg/mL

**Q.** And the EC50 (HT-1080)?
**A.** > 50 µg/mL

**Q.** And the EC50 [2]?
**A.** > 50 µg/mL

**Q.** What about the EC50 (KB) of the same compound?
**A.** > 50 µg/mL

**Q.** And the EC50 [3]?
**A.** > 50 µg/mL

**Q.** What about the EC50 (P388) of the same compound?
**A.** > 50 µg/mL

**Q.** What about the EC50 [4] of the same compound?
**A.** > 50 µg/mL

**Q.** Which results are given for C[C@H](O)C1=C[C@@]2(C=C[C@@H]3C(C(=O)O)=CO[C@@H](O[C@@H]4O[C@H](CO)[C@@H](O)[C@H](O)[C@H]4O)[C@@H]32)OC1=O?
**A.** EC50 [1]: > 50 µg/mL; EC50 (HT-1080): > 50 µg/mL; EC50 [2]: > 50 µg/mL; EC50 (KB): > 50 µg/mL; EC50 [3]: > 50 µg/mL; EC50 (P388): > 50 µg/mL; EC50 [4]: > 50 µg/mL

**Q.** With C/C=C1/C(=O)O[C@@]23C=C[C@H]4C[C@H](O)O[C@@H](O[C@H]12)[C@H]43 [ALLAMCIN] as the compound, how does the EC50 [1] read?
**A.** 1.2 µg/mL (≈ 4.8 µM)

**Q.** And the EC50 (HT-1080)?
**A.** 3.1 µg/mL (≈ 12.4 µM)

**Q.** What about the EC50 [2] of the same compound?
**A.** 0.9 µg/mL (≈ 3.6 µM)

**Q.** What about the EC50 (KB) of the same compound?
**A.** 0.3 µg/mL (≈ 1.2 µM)

**Q.** What about the EC50 [3] of the same compound?
**A.** 0.3 µg/mL (≈ 1.2 µM)

**Q.** What about the EC50 (P388) of the same compound?
**A.** 0.2 µg/mL (≈ 0.799 µM)

**Q.** What about the EC50 [4] of the same compound?
**A.** 0.1 µg/mL (≈ 0.4 µM)
